The values below come from article PMC8443589, “Modelling human liver fibrosis in the context of non-alcoholic steatohepatitis using a microphysiological system” (Communications Biology, 2021).

This experiment deals with liver MPS NASH model (PHH, KC and HSC co-cultures). The experiment is described as follows: Cue study: RNAseq transcriptomic profile, enriched pathways. The format is cell-based, human. The following applies: GO term enrichment and cluster analysis, 14 days. The method, then:
Fig. 4 Systems biology interrogation of liver MPS NASH model to determine physiologically relevant cues that promote transcriptional changes to mimic advanced NASH disease state. […]
The MPS LC12 plates consists of 12 individual bioreactors that contain pneumatically driven micro-pumps to recirculate cell culture medium through a collagen-coated scaffold. […] Microtissues were then cultured in either HEP-Lean or HEP-Fat medium, both media’s are proprietary to CN Bio Innovations Ltd. The HEP-Fat medium is a derivative of the HEP-LEAN medium and contains a mixture of saturated and unsaturated FFAs, as well as physiologically relevant quantities of insulin and sugars. […]
Prior to RNA-seq integrity and quantity of RNA were assessed by Fragment Analyzer high sensitivity RNA kit (Agilent Technologies, USA). […] Quality and quantity of libraries were assessed by Fragment Analyzer standard sensitivity NGS kit (Agilent Technologies, USA). […] The sample pools were quantified with a Qubit Fluorometer (ThermoFisher Scientific, USA) using the dsDNA HS kit (ThermoFisher Scientific, USA), further diluted and sequenced to >13 M paired reads/sample on NextSeq500 (Illumina, USA) with PE 75 base pair (bp) read length setting.
The sequencing data were demultiplexed using Illumina bcl2fastq2-v2.16. The quality of the reads was assessed using FastQC (www.bioinformatics.babraham.ac.uk/projects/fastqc). […]

As for “TGFβ: recombinant TGF beta 1 protein (Abcam), 1 ng/ml cue”, the “enriched pathways / gene clusters induced” value was “induced a wide range of clusters associated with collagen formation and matrix reorganisation”.
